Results reported in US20140315876A1, “BETA-LACTAMASE INHIBITORS” (priority 2013, published 2014).
Counter-ions that a name gives are not always drawn.

Columns and labels:
[1] = test system: bacterial strains that express the class D cephalosporinase OXA-15; test: Synergy MIC / standard BLI potentiation MIC assay, strains expressing OXA-15; format: cell-based, E. coli; details: in the presence of a β-lactam; comparator Avibactam (comparator compound CCC)
Summary of the method: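 Broth microdilution in CAMHB per CLSI, ~10^5 CFU/mL, 18-20 h at 37° C; MIC is lowest concentration with no visible turbidity. Potentiation: β-lactam 128-0.13 μg/mL with BLI fixed at 4 μg/mL. Synergy: BLI serially diluted with β-lactam fixed. Engineered E. coli kept on 25 μg/mL tetracycline.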

[2] = test system: bacterial strains that express KPC β-lactamases; test: Synergy MIC / standard BLI potentiation MIC assay, strains expressing KPC β-lactamases; format: cell-based; details: more active for at least one KPC strain and/or better spectrum of activity than Avibactam; in the presence of a β-lactam
Protocol: The experimental protocol was performed according to Clinical and Laboratory Standards Institute (CLSI) guidelines with modifications as described below (CLSI guidelines can be derived from the CLSI document M07-A9 published in January 2012: “Methods for Dilution Antimicrobial Susceptibility Tests for Bacteria That Grow Aerobically; Approved Standard-Ninth Edition”).
To prepare for MIC testing, frozen glycerol stocks of clinical isolates (Klebsiella pneumoniae, Eschericia coli, Enterobacter spp, Citrobacter spp, or Pseudomonas aeruginosa) were used to streak for isolated colonies on rich, non-selective, tryptic soy agar containing 5% sheep's blood (TSAB). Frozen glycerol stocks of laboratory engineered, isogenic E. coli strains, which contain cloned β-lactamase expressing plasmids were used to streak for isolated colonies on rich, selective LB agar supplemented with 25 μg/mL tetracycline to maintain the plasmid. All strains were incubated at 37° C. for 18-24 hrs.
On the day of testing, primary cultures were started by scraping off 5-10 colonies from the TSAB plates containing clinical strains or the tetracycline supplemented LB plates containing engineered strains. The clinical strain material was suspended in ˜5 mL of cation adjusted Mueller Hinton Broth (CAMHB) in 14 mL culture tubes. The engineered strain material was suspended in CAMHB (supplemented with 25 μg/mL tetracycline) in 14 mL culture tubes. All strains were incubated at 37° C. with aeration (200 rpm) for ˜2 hrs until the optical density at 600 nm (OD600) was ≧0.1.
The two compound components of the assay were each diluted in CAMHB and added to the 96-well broth microdilution assay plates. 50 μL of the β-lactam was added to each well of the assay plate in 2-fold dilutions with final concentrations ranging from 128 to 0.13 μg/mL. 25 μL of the BLI compound was added to all wells in the broth microdilution plates at a final concentration of 4 μg/mL. Inoculum cultures were prepared by standardizing the primary cultures to OD600=0.1 and then adding 20 μL of the adjusted primary culture per 1 mL CAMHB for clinical strains or CAMHB (supplemented with tetracycline at 100 μg/mL) for engineered strains, so that the final inoculum density was ˜10^5 colony forming units per milliliter. Diluted inoculum cultures were used to inoculate 25 μL per well in 96-well broth microdilution assay plates. The final volume of each well was 100 μL and contained a β-lactam at different concentrations, a BLI compound at 4 μg/mL concentration, the bacterial culture at an OD600 of approximately 0.001 and when necessary tetracycline at 25 μg/mL.
Plates were incubated for 18-20 hours at 37° C. with aeration (200 rpm). Following incubation, growth was confirmed visually placing plates over a viewing apparatus (stand with a mirror underneath) and then OD600 was measured using a SpectraMax 340PC384 plate reader (Molecular Devices, Sunnyvale, Calif.). Growth was defined as turbidity that could be detected with the naked eye or achieving minimum OD600 of 0.1. MIC values were defined as the lowest concentration producing no visible turbidity.
The synergy MIC (sMIC) assay determines the concentration of the BLI required to potentiate the activity of a fixed concentration of a β-lactam antibiotic against β-lactamase producing bacterial strains. The experimental protocol was performed according to Clinical and Laboratory Standards Institute (CLSI) guidelines with modifications as described below (CLSI guidelines can be derived from the CLSI document M07-A9 published in January 2012: “Methods for Dilution Antimicrobial Susceptibility Tests for Bacteria That Grow Aerobically; Approved Standard-Ninth Edition”). […]

| Compound | activity against bacterial strains that express the class D cephalosporinase OXA-15, compared with Avibactam [1] | activity and/or spectrum of activity against bacterial strains that express KPC β-lactamases, compared with Avibactam [2] |
| --- | --- | --- |
| O=C1N2C[C@@H](CC[C@H]2c2nnc(COC3CNC3)o2)N1OS(=O)(=O)O [Compound 744, (2S,5R)-2-(5-((azetidin-3-yloxy)methyl)-1,3,4-oxadiazol-2-yl)-7-oxo-1,6-diazabicyclo[3.2.1]octan-6-yl hydrogen sulfate] | more active than Avibactam | more active than Avibactam |
| O=C1N2C[C@@H](CC[C@H]2c2nnc(CCNC3CNC3)o2)N1OS(=O)(=O)O [Compound 745, (2S,5R)-2-(5-(2-(azetidin-3-ylamino)ethyl)-1,3,4-oxadiazol-2-yl)-7-oxo-1,6-diazabicyclo[3.2.1]octan-6-yl hydrogen sulfate] | more active than Avibactam | more active than Avibactam |
| N=C(N)N1CC(NCc2nnc([C@@H]3CC[C@@H]4CN3C(=O)N4OS(=O)(=O)O)o2)C1 [Compound 746, (2S,5R)-2-(5-(((1-carbamimidoylazetidin-3-yl)amino)methyl)-1,3,4-oxadiazol-2-yl)-7-oxo-1,6-diazabicyclo[3.2.1]octan-6-yl hydrogen sulfate] | more active than Avibactam | more active than Avibactam |
| N=C(N)N[C@H]1C[C@@H](c2nnc([C@@H]3CC[C@@H]4CN3C(=O)N4OS(=O)(=O)O)o2)C1 [Compound 749, (2S,5R)-2-(5-((1s,3R)-3-guanidinocyclobutyl)-1,3,4-oxadiazol-2-yl)-7-oxo-1,6-diazabicyclo[3.2.1]octan-6-yl hydrogen sulfate] | more active than Avibactam | more active than Avibactam |
| O=C1N2C[C@@H](CC[C@H]2c2nnc(C3CC4(CNC4)C3)o2)N1OS(=O)(=O)O [Compound 750, (2S,5R)-2-(5-(2-azaspiro[3,3]heptan-6-yl)-1,3,4-oxadiazol-2-yl)-7-oxo-1,6-diazabicyclo[3.2.1]octan-6-yl hydrogen sulfate] | more active than Avibactam | more active than Avibactam |
| N[C@H]1C[C@H](Cc2nnc([C@@H]3CC[C@@H]4CN3C(=O)N4OS(=O)(=O)O)o2)C1 [Compound 751, (2S,5R)-2-(5-(((1r,3S)-3-aminocyclobutyl)methyl)-1,3,4-oxadiazol-2-yl)-7-oxo-1,6-diazabicyclo[3.2.1]octan-6-yl hydrogen sulfate] | more active than Avibactam | more active than Avibactam |
| N=C(N)NC1CC(Cc2nnc([C@@H]3CC[C@@H]4CN3C(=O)N4OS(=O)(=O)O)o2)C1 (stereo partly drawn) [Compound 752, (2S,5R)-2-(5-((3-guanidinocyclobutyl)methyl)-1,3,4-oxadiazol-2-yl)-7-oxo-1,6-diazabicyclo[3.2.1]octan-6-yl hydrogen sulfate] | more active than Avibactam | more active than Avibactam |
| N[C@H]1C[C@H](CCc2nnc([C@@H]3CC[C@@H]4CN3C(=O)N4OS(=O)(=O)O)o2)C1 [Compound 753, (2S,5R)-2-(5-(2-((1r,3R)-3-aminocyclobutyl)ethyl)-1,3,4-oxadiazol-2-yl)-7-oxo-1,6-diazabicyclo[3.2.1]octan-6-yl hydrogen sulfate] | more active than Avibactam | more active than Avibactam |
| N[C@H]1C[C@@H](CCc2nnc([C@@H]3CC[C@@H]4CN3C(=O)N4OS(=O)(=O)O)o2)C1 [Compound 754, (2S,5R)-2-(5-(2-((1s,3S)-3-aminocyclobutyl)ethyl)-1,3,4-oxadiazol-2-yl)-7-oxo-1,6-diazabicyclo[3.2.1]octan-6-yl hydrogen sulfate] | more active than Avibactam | more active than Avibactam |
| NC1CC(NCc2nnc([C@@H]3CC[C@@H]4CN3C(=O)N4OS(=O)(=O)O)o2)C1 (stereo partly drawn) [Compound 755, (2S,5R)-2-(5-(((3-aminocyclobutyl)amino)methyl)-1,3,4-oxadiazol-2-yl)-7-oxo-1,6-diazabicyclo[3.2.1]octan-6-yl hydrogen sulfate] | more active than Avibactam | more active than Avibactam |
| N[C@H]1C[C@@H](NCc2nnc([C@@H]3CC[C@@H]4CN3C(=O)N4OS(=O)(=O)O)o2)C1 [Compound 756, (2S,5R)-2-(5-((((1s,3R)-3-aminocyclobutyl)amino)methyl)-1,3,4-oxadiazol-2-yl)-7-oxo-1,6-diazabicyclo[3.2.1]octan-6-yl hydrogen sulfate] | more active than Avibactam | more active than Avibactam |
| O=C1N2C[C@@H](CC[C@H]2c2nnc([C@H]3CCNC3)o2)N1OS(=O)(=O)O [Compound 758, (2S,5R)-7-oxo-2-(5-((S)-pyrrolidin-3-yl)-1,3,4-oxadiazol-2-yl)-1,6-diazabicyclo[3.2.1]octan-6-yl hydrogen sulfate] | more active than Avibactam | more active than Avibactam |
| O=C1N2C[C@@H](CC[C@H]2c2nnc([C@@H]3CCNC3)o2)N1OS(=O)(=O)O [Compound 759, (2S,5R)-7-oxo-2-(5-((R)-pyrrolidin-3-yl)-1,3,4-oxadiazol-2-yl)-1,6-diazabicyclo[3.2.1]octan-6-yl hydrogen sulfate] | more active than Avibactam | more active than Avibactam |
| N[C@@H]1CN[C@H](c2nnc([C@@H]3CC[C@@H]4CN3C(=O)N4OS(=O)(=O)O)o2)C1 [Compound 760, (2S,5R)-2-(5-((2S,4S)-4-aminopyrrolidin-2-yl)-1,3,4-oxadiazol-2-yl)-7-oxo-1,6-diazabicyclo[3.2.1]octan-6-yl hydrogen sulfate] | more active than Avibactam | more active than Avibactam |
| N[C@H]1CN[C@@H](c2nnc([C@@H]3CC[C@@H]4CN3C(=O)N4OS(=O)(=O)O)o2)C1 [Compound 761, (2S,5R)-2-(5-((2R,4R)-4-aminopyrrolidin-2-yl)-1,3,4-oxadiazol-2-yl)-7-oxo-1,6-diazabicyclo[3.2.1]octan-6-yl hydrogen sulfate] | more active than Avibactam | more active than Avibactam |
